row,melting point [°C],Compound
1,168 to 170,NS(=O)(=O)c1ccc2c(c1)oc(=O)n2CC(=O)O
2,214 to 216,NC(=O)c1ccc(OCCC(=O)O)cc1
3,142 to 144,COc1ccc(S(=O)(=O)Cl)cc1C(=O)O
4,119 to 121,CCC(=O)NCc1cc(S(N)(=O)=O)ccc1OC
5,250 to 254,Nn1c(S)nnc1-c1ccncc1
6,53 to 55,CCOC(=O)CSc1nnc(-c2cccs2)o1
7,133 to 135,CC(=O)Nc1cccc(C#N)c1
8,178 to 180,N#Cc1ccc(OCC(=O)O)c(Cl)c1
9,126 to 128,NC(=O)c1ccncc1F
10,72 to 74,CCOC(=O)c1ccc(N2CC(N)C2)nc1
11,107 to 109,C#CCNC(=O)c1cccnc1Cl
12,159 to 161,Cc1ccc(C(=O)NCCC(=O)O)c(O)c1
13,139 to 141,Cn1ncc(C(=O)O)c1N
14,129 to 131,O=C(O)c1cc(CO)on1
15,215 to 217,Cc1ccc(-c2nn(-c3ccccc3)cc2C(=O)O)cc1C
16,92 to 94,CC(C)(C)OC(=O)Nc1cc(N)ccc1F
17,95 to 99,Cn1c(=O)cc(N)n(Cc2ccccc2)c1=O
18,169 to 171,CCOC(=O)C1=C(C)NC(=O)NC1CCl (configuration not stated)
19,110 to 112,Cc1cccn2c(=O)cc(CCl)nc12
20,162 to 164,O=C(CCl)c1cn(-c2cccc(C(F)(F)F)c2)nn1
21,109 to 111,Nc1ccccc1Sc1nncs1
22,52 to 55,COC(=O)c1nnc2c(Cl)cccn12
23,198 to 200,Cc1ccn(-c2cccc(C(=O)O)c2)n1
24,87 to 89,Cc1ccc(N)c(-c2nc(C3CC3)no2)c1
25,92 to 94,CCc1ccc(-c2csc(N)n2)s1
26,110 to 112,O=C(O)CCc1cc2ccccc2o1

# Further lines, the compound ahead of its results:
row,Compound,melting point [°C]
1,O=C(O)C1CCCN(c2nccs2)C1 (configuration not stated),121 to 123
2,CN(C)c1ccc(C=O)s1,65 to 67
3,O=C(O)CCCNS(=O)(=O)c1ccc2c(c1)OCCO2,120 to 122
4,Brc1c[nH]c2nc(C3CCCO3)nc-2c1 (configuration not stated),219 to 221
5,NC(=O)CCC(NC(=O)CCC1CCCC1)C(=O)O (configuration not stated),146 to 148
6,Cc1ccccc1NS(=O)(=O)c1ccc(C(=O)O)cc1,256 to 258
7,COc1cc2c(C#N)c(OC)nc(N)c2c(N)n1,249 to 251
8,O=C(O)c1cc([N+](=O)[O-])c(Br)cc1F,152 to 154
9,ClCc1nc2cccnc2s1,65 to 67
10,CS(=O)(=O)c1cccc(N)c1,49 to 51
11,C#CCOc1ccccc1C=O,70 to 72
12,Fc1cc2ncc(Cl)nc2cc1F,91 to 93
13,Nc1cc(F)c(Br)cc1N,104 to 106
14,Cc1c(Br)ccc(S(N)(=O)=O)c1C,195 to 197
15,CS(=O)(=O)c1ccc(C#N)cc1F,146 to 148
16,NC(=O)C1Cc2[nH]cnc2CN1 (configuration not stated),249 to 251

row,Compound,melting point [°C]
1,COC(=O)c1ccc(CNC(=O)C(C)Cl)cc1 (configuration not stated),96 to 98
2,CC1(C)OC(=O)C(C(=O)C2CCCC2)C(=O)O1,63 to 65
3,O=C(O)c1ccc2c(=O)[nH][nH]c(=O)c2c1,250 to 252
4,O=C(CCl)NCc1ccccc1CS(=O)(=O)N1CCOCC1,118 to 120
5,CC1(c2ccc(S(N)(=O)=O)cc2)NC(=O)NC1=O (configuration not stated),249 to 251
6,O=C(Nc1ccc(Cl)cn1)Nc1ccccc1C(=O)O,245 to 247
7,Clc1cc(C2=NCCN2)ccn1,165 to 167
8,CC(C)c1nonc1N,43 to 45
9,O=C(O)c1ccnc(OC2CCC2)c1,153 to 155
10,CN(C)c1c(N)n(C)c(=O)[nH]c1=O,161 to 163
11,C=CCNC(=O)NC(=O)CCl,113 to 115
12,CCN(c1ccccc1)S(=O)(=O)c1cc(N)ccc1Cl,102 to 104
13,O=C1NC(=O)C(c2ccccc2OC(F)(F)F)N1 (configuration not stated),156 to 158
14,c1ccc2sc(C3CCCCN3)nc2c1 (configuration not stated),200 to 202
15,CN(c1ccc(O)cc1)S(=O)(=O)c1ccccc1F,100 to 102

# Reference: a melting point compilation (Tetko et al.)
